Drawing on publication PMC12040169 (PLOS Biology, 2025), this text covers activity and viability for 15 compounds.

In series [1] the test system is T1, CTL2-GFP (C. trachomatis L2/434/Bu, GFP-expressing).
T1 construct: L2/434/Bu, GFP-expressing
The series is described as follows: microbe, parasite or virus in culture. The settings on record: Chlamydia trachomatis, HeLa, 28.5 h; bulk GFP, mean of 2; read-out: % of control remaining. More on the design: Intracellular C. trachomatis growth in HeLa cells, bulk GFP fluorescence relative to DMSO. The method, then:
MICs were calculated as described above.

For series [2], the system named is T2, C. trachomatis L2/434/Bu expressing GFP (CTL2-GFP).
T2 construct: L2/434/Bu GFP intracellular growth in HeLa cells
Description: microbe, parasite or virus in culture. More on the design: C. trachomatis total inclusion area by high-content imaging, normalised to DMSO. The settings on record: Chlamydia trachomatis, HeLa, 28.5 h; total inclusion area; read-out: % of control remaining. The method, boiled down:
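Infected cells treated with library compounds were read for bulk GFP (chlamydial growth) and resorufin fluorescence (host viability), then fixed, Hoechst-stained and imaged. Inclusion area and number from GFP, plus nuclei counts, served as additional growth and viability proxies; MICs derived as previously described.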

Series [3] can be described thus: in vitro. More on the design: Viability of infected HeLa host cells, resazurin conversion, bulk resorufin fluorescence relative to DMSO. The note with it: human, hela cells; bulk resorufin, mean of 2.

For the compound `O=S(=O)(Nc1ncccn1)c1ccc(NC(=S)Nc2ccc3c(c2)OCO3)cc1` [CBK267046], in series [1], the activity at 1 µM amounted to 54.3%, the activity at 5 µM is 10.7% and the activity at 10 µM was found to be 12.9%. Also, in series [2], the activity at 1 µM was 88.8%, the activity at 5 µM came out at 21.2% and the activity at 10 µM turned out to be 18.3%. In series [3], the viability at 28.5 h, 1 µM worked out at 114%; the viability at 28.5 h, 5 µM came out at 121%; the viability at 28.5 h, 10 µM turned out to be 119%.
`N=C(N)Nc1nc(-c2ccccc2)c2cc(F)ccc2n1` [CBK267350]: in series [1], the activity at 1 µM came out at 93.6%, the activity at 5 µM was found to be 64.3% and the activity at 10 µM amounted to 16.8%. In addition, in series [2], the activity at 1 µM was determined as 90.4%, the activity at 5 µM turned out to be 64.6% and the activity at 10 µM is 12.8%. In addition, in series [3], the viability at 28.5 h, 1 µM turned out to be 107%; the viability at 28.5 h, 5 µM stood at 111%; the viability at 28.5 h, 10 µM was 105%.
Regarding `Cc1ccc(S(=O)(=O)Nc2ccc(S(=O)(=O)Nc3nccs3)cc2)c([N+](=O)[O-])c1` [CBK267410], in series [1], the activity at 1 µM came to 17.1%, the activity at 5 µM was determined as 7.21% and the activity at 10 µM was found to be 1.76%. Moreover, in series [2], the activity at 1 µM was found to be 23%, the activity at 5 µM is 5.7% and the activity at 10 µM came to 1.86%. Further, in series [3], the viability at 28.5 h, 1 µM was determined as 110%; the viability at 28.5 h, 5 µM worked out at 97.6%; the viability at 28.5 h, 10 µM was found to be 98.2%.
Regarding `Cc1cc(C)c2nc(-c3ccccn3)cc(C(=O)Nc3ccc(S(=O)(=O)Nc4onc(C)c4C)cc3)c2c1` [CBK267775], in series [1], the activity at 1 µM was found to be 95.8%, the activity at 5 µM is 105% and the activity at 10 µM turned out to be 66.8%. Also, in series [2], the activity at 1 µM came out at 115%, the activity at 5 µM was determined as 111% and the activity at 10 µM came to 74.8%. Also, in series [3], the viability at 28.5 h, 1 µM is 100%; the viability at 28.5 h, 5 µM amounted to 94.8%; the viability at 28.5 h, 10 µM worked out at 98.6%.
Take `O=[N+]([O-])c1cc2c(cc1C(Nc1ccccn1)c1cc(Cl)c3cccnc3c1O)OCO2` (stereo not drawn) [CBK267795]: in series [1], the activity at 1 µM was 109%, the activity at 5 µM worked out at 82.9% and the activity at 10 µM was found to be 79.7%. Also, in series [2], the activity at 1 µM was determined as 94.3%, the activity at 5 µM turned out to be 40.8% and the activity at 10 µM was found to be 25.9%. In addition, in series [3], the viability at 28.5 h, 1 µM is 95.1%; the viability at 28.5 h, 5 µM was found to be 98.7%; the viability at 28.5 h, 10 µM was determined as 93.2%.
In the case of `Oc1c(CN2CCN(c3ccc(F)cc3)CC2)cc(Br)c2cccnc12` [CBK268051], in series [1], the activity at 1 µM came to 113%, the activity at 5 µM was determined as 46.4% and the activity at 10 µM was 37.8%. Besides, in series [2], the activity at 1 µM turned out to be 119%, the activity at 5 µM was 33% and the activity at 10 µM amounted to 37.5%. Moreover, in series [3], the viability at 28.5 h, 1 µM stood at 96.2%; the viability at 28.5 h, 5 µM came to 97.9%; the viability at 28.5 h, 10 µM worked out at 92.4%.
As for `CN(C)c1ccc(Nc2nc(NCCO)c3ccccc3n2)cc1` [CBK268392C], in series [1], the activity at 1 µM turned out to be 130%, the activity at 5 µM was 4.94% and the activity at 10 µM amounted to 6.78%. Further, in series [2], the activity at 1 µM stood at 69.7%, the activity at 5 µM was found to be 4.24% and the activity at 10 µM worked out at 0.899%. Also, in series [3], the viability at 28.5 h, 1 µM was 95.3%; the viability at 28.5 h, 5 µM worked out at 103%; the viability at 28.5 h, 10 µM worked out at 100%.
Regarding `Oc1ccccc1Nc1nc(NC2CCCC2)c2ccccc2n1` [CBK268402C], in series [1], the activity at 1 µM worked out at 120%, the activity at 5 µM came to 45.9% and the activity at 10 µM worked out at 9.92%. Also, in series [2], the activity at 1 µM was determined as 43.4%, the activity at 5 µM turned out to be 23.2% and the activity at 10 µM was 4.48%. Further, in series [3], the viability at 28.5 h, 1 µM came out at 90.7%; the viability at 28.5 h, 5 µM was found to be 94.1%; the viability at 28.5 h, 10 µM is 104%.
With `O=[N+]([O-])c1cccc(C(Nc2cccnc2)c2cc(Cl)c3cccnc3c2O)c1` (stereo not drawn) [CBK268629], in series [1], the activity at 1 µM was found to be 102%, the activity at 5 µM stood at 82% and the activity at 10 µM is 56.2%. Besides, in series [2], the activity at 1 µM was 104%, the activity at 5 µM stood at 93.6% and the activity at 10 µM is 47.5%. Besides, in series [3], the viability at 28.5 h, 1 µM came out at 93.9%; the viability at 28.5 h, 5 µM was 88.9%; the viability at 28.5 h, 10 µM was found to be 91.6%.
As for `O=C1Oc2nc3ccccc3cc2CN1C1CC1` [CBK282870], in series [1], the activity at 1 µM was found to be 0.777%, the activity at 5 µM was 1.12% and the activity at 10 µM came to 3.61%. Besides, in series [2], the activity at 1 µM is 0.264%, the activity at 5 µM came out at 0.496% and the activity at 10 µM worked out at 0.404%. In addition, in series [3], the viability at 28.5 h, 1 µM came out at 112%; the viability at 28.5 h, 5 µM turned out to be 112%; the viability at 28.5 h, 10 µM is 98.4%.
In the case of `O=C(c1cccs1)N1C[C@H](c2ccc(F)cc2)[C@H]2CN(Cc3ccccc3)CC[C@H]21` [CBK285544], in series [1], the activity at 1 µM worked out at 93.9%, the activity at 5 µM turned out to be 109% and the activity at 10 µM came out at 115%. Moreover, in series [2], the activity at 1 µM amounted to 74.8%, the activity at 5 µM is 78.2% and the activity at 10 µM worked out at 59.8%. Besides, in series [3], the viability at 28.5 h, 1 µM turned out to be 93.4%; the viability at 28.5 h, 5 µM is 91.7%; the viability at 28.5 h, 10 µM was determined as 95.5%.
For the compound `Cc1cccc(-c2ccc(CC3(C(N)=O)CCN(C(=O)CCc4ccccc4)CC3)cc2)c1` [CBK285796], in series [1], the activity at 1 µM worked out at 133%, the activity at 5 µM was 4.53% and the activity at 10 µM is 4.56%. For the same compound, in series [2], the activity at 1 µM is 113%, the activity at 5 µM was found to be 4.18% and the activity at 10 µM was determined as 1.3%. Moreover, in series [3], the viability at 28.5 h, 1 µM was 91.6%; the viability at 28.5 h, 5 µM turned out to be 96.9%; the viability at 28.5 h, 10 µM was determined as 106%.
For the compound `Cc1ccc2[nH]c(-c3cccc(NC(=O)c4cccc(CN5CCCC5=O)c4)c3)nc2c1` [CBK285838], in series [1], the activity at 1 µM was 137%, the activity at 5 µM was determined as 94.9% and the activity at 10 µM worked out at 34.2%. Moreover, in series [2], the activity at 1 µM stood at 125%, the activity at 5 µM was 91.8% and the activity at 10 µM was found to be 48.2%. In series [3], the viability at 28.5 h, 1 µM turned out to be 93%; the viability at 28.5 h, 5 µM was found to be 83.3%; the viability at 28.5 h, 10 µM was 87.6%.
On to `O=C(CC1CCN(CCc2ccccc2)CC1)Nc1cccc(-n2cccn2)c1` [CBK285951], for which, in series [1], the activity at 1 µM was found to be 11.3%, the activity at 5 µM worked out at 5.45% and the activity at 10 µM worked out at 1.48%. In series [2], the activity at 1 µM came to 13.7%, the activity at 5 µM is 0.475% and the activity at 10 µM turned out to be 0.166%. Further, in series [3], the viability at 28.5 h, 1 µM amounted to 91.7%; the viability at 28.5 h, 5 µM was 87.4%; the viability at 28.5 h, 10 µM is 88.6%.
Consider `CCc1cc(-c2n[nH]cc2-c2nc(C)cs2)c(O)cc1OC` [CBK287934], for which, in series [1], the activity at 1 µM is 133%, the activity at 5 µM stood at 62.2% and the activity at 10 µM amounted to 7.47%. In series [2], the activity at 1 µM turned out to be 87.9%, the activity at 5 µM amounted to 31.5% and the activity at 10 µM turned out to be 6.53%. In series [3], the viability at 28.5 h, 1 µM was found to be 101%; the viability at 28.5 h, 5 µM stood at 96.8%; the viability at 28.5 h, 10 µM worked out at 94.8%.
